PubChem BioAssay (NCI)
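GI50 = concentration required for 50% inhibition of growth. TGI denotes the concentration required for complete inhibition of growth.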

Legend:
Assay in all cases: DTP human tumour cell line panel, 384-well format
COLO 205 colon = tested on: COLO 205 colon
RPMI-8226 leukemia = tested on: RPMI-8226 leukemia
UO-31 renal = tested on: UO-31 renal
SK-MEL-28 melanoma = tested on: SK-MEL-28 melanoma
SW-620 colon = tested on: SW-620 colon
MDA-MB-468 breast = tested on: MDA-MB-468 breast
MCF7 breast = tested on: MCF7 breast
NCI/ADR-RES ovarian = tested on: NCI/ADR-RES ovarian
SF-539 CNS = tested on: SF-539 CNS
HCT-116 colon = tested on: HCT-116 colon
OVCAR-3 ovarian = tested on: OVCAR-3 ovarian
NCI-H460 NSCLC = tested on: NCI-H460 NSCLC
KM12 colon = tested on: KM12 colon
CAKI-1 renal = tested on: CAKI-1 renal
PC-3 prostate = tested on: PC-3 prostate
MALME-3M melanoma = tested on: MALME-3M melanoma
UACC-62 melanoma = tested on: UACC-62 melanoma
OVCAR-4 ovarian = tested on: OVCAR-4 ovarian
SNB-75 CNS = tested on: SNB-75 CNS
CCRF-CEM leukemia = tested on: CCRF-CEM leukemia
HCT-15 colon = tested on: HCT-15 colon
SF-295 CNS = tested on: SF-295 CNS
NCI-H322M lung = tested on: NCI-H322M lung
A498 renal = tested on: A498 renal
T-47D breast = tested on: T-47D breast
BT-549 breast = tested on: BT-549 breast
LOX IMVI melanoma = tested on: LOX IMVI melanoma
NCI-H522 lung = tested on: NCI-H522 lung
RXF 393 renal = tested on: RXF 393 renal
SR leukemia = tested on: SR leukemia
NCI-H23 lung = tested on: NCI-H23 lung
HT29 colon = tested on: HT29 colon
SK-MEL-2 melanoma = tested on: SK-MEL-2 melanoma
SK-OV-3 ovarian = tested on: SK-OV-3 ovarian
U251 glioblastoma = tested on: U251 glioblastoma
SK-MEL-5 melanoma = tested on: SK-MEL-5 melanoma
MOLT-4 leukemia = tested on: MOLT-4 leukemia
A549 NSCLC = tested on: A549 NSCLC
ACHN renal = tested on: ACHN renal
IGROV1 ovarian = tested on: IGROV1 ovarian
UACC-257 melanoma = tested on: UACC-257 melanoma
HL-60(TB) leukemia = tested on: HL-60(TB) leukemia
HOP-92 NSCLC = tested on: HOP-92 NSCLC
MDA-MB-231 breast = tested on: MDA-MB-231 breast
SF-268 CNS = tested on: SF-268 CNS
NCI-H226 lung = tested on: NCI-H226 lung
TK-10 renal = tested on: TK-10 renal
EKVX NSCLC = tested on: EKVX NSCLC
786-0 renal = tested on: 786-0 renal
SNB-19 CNS = tested on: SNB-19 CNS
MDA-MB-435 melanoma = tested on: MDA-MB-435 melanoma
HOP-62 NSCLC = tested on: HOP-62 NSCLC
HS 578T breast = tested on: HS 578T breast
OVCAR-5 ovarian = tested on: OVCAR-5 ovarian
K-562 leukemia = tested on: K-562 leukemia
SN12C renal = tested on: SN12C renal
M14 melanoma = tested on: M14 melanoma
DU-145 prostate = tested on: DU-145 prostate
HCC-2998 colon = tested on: HCC-2998 colon

Structure (SMILES): CN1CCN(c2ccc3nc(-c4c5cccccc-5[nH]c4=O)[nH]c3c2)CC1
- GI50 (COLO 205 colon): 5.27 µM
- TGI (COLO 205 colon): 17.7 µM
- GI50 (RPMI-8226 leukemia): 10 µM
- TGI (RPMI-8226 leukemia): 21.7 µM
- GI50 (UO-31 renal): 6.3 µM
- TGI (UO-31 renal): 19.2 µM
- GI50 (SK-MEL-28 melanoma): 15.9 µM
- TGI (SK-MEL-28 melanoma): 35 µM
- GI50 (SW-620 colon): 6.59 µM
- TGI (SW-620 colon): 24.9 µM
- GI50 (MDA-MB-468 breast): 5.61 µM
- TGI (MDA-MB-468 breast): 21 µM
- GI50 (MCF7 breast): 7.26 µM
- TGI (MCF7 breast): 21.3 µM
- GI50 (NCI/ADR-RES ovarian): 16.7 µM
- TGI (NCI/ADR-RES ovarian): 47.1 µM
- GI50 (SF-539 CNS): 3.66 µM
- TGI (SF-539 CNS): 13.2 µM
- GI50 (HCT-116 colon): 12.1 µM
- TGI (HCT-116 colon): 25.3 µM
- GI50 (OVCAR-3 ovarian): 12.3 µM
- TGI (OVCAR-3 ovarian): 28.2 µM
- GI50 (NCI-H460 NSCLC): 3.65 µM
- TGI (NCI-H460 NSCLC): 13.8 µM
- GI50 (KM12 colon): 0.371 µM
- TGI (KM12 colon): 10.7 µM
- GI50 (CAKI-1 renal): 5.23 µM
- TGI (CAKI-1 renal): 18.2 µM
- GI50 (PC-3 prostate): 6.81 µM
- TGI (PC-3 prostate): 25.3 µM
- GI50 (MALME-3M melanoma): 11 µM
- TGI (MALME-3M melanoma): 23.1 µM
- GI50 (UACC-62 melanoma): 8.99 µM
- TGI (UACC-62 melanoma): 21.2 µM
- GI50 (OVCAR-4 ovarian): 10.3 µM
- TGI (OVCAR-4 ovarian): 38.6 µM
- GI50 (SNB-75 CNS): 3.71 µM
- TGI (SNB-75 CNS): 17.6 µM
- GI50 (CCRF-CEM leukemia): 3.47 µM
- TGI (CCRF-CEM leukemia): 10.7 µM
- GI50 (HCT-15 colon): 7.04 µM
- TGI (HCT-15 colon): 26.4 µM
- GI50 (SF-295 CNS): 12.2 µM
- TGI (SF-295 CNS): 32 µM
- GI50 (NCI-H322M lung): 10.4 µM
- TGI (NCI-H322M lung): 33.6 µM
- GI50 (A498 renal): 12.7 µM
- TGI (A498 renal): 26.3 µM
- GI50 (T-47D breast): 16.9 µM
- TGI (T-47D breast): 37.9 µM
- GI50 (BT-549 breast): 4.48 µM
- TGI (BT-549 breast): 14.6 µM
- GI50 (LOX IMVI melanoma): 10.7 µM
- TGI (LOX IMVI melanoma): 22.7 µM
- GI50 (NCI-H522 lung): 9.06 µM
- TGI (NCI-H522 lung): 29.6 µM
- GI50 (RXF 393 renal): 2.7 µM
- TGI (RXF 393 renal): 8.68 µM
- GI50 (SR leukemia): 2.17 µM
- TGI (SR leukemia): 4.45 µM
- GI50 (NCI-H23 lung): 7.46 µM
- TGI (NCI-H23 lung): 26.8 µM
- GI50 (HT29 colon): 6.92 µM
- TGI (HT29 colon): 23.9 µM
- GI50 (SK-MEL-2 melanoma): 28.6 µM
- TGI (SK-MEL-2 melanoma): 44.4 µM
- GI50 (SK-OV-3 ovarian): 5.76 µM
- TGI (SK-OV-3 ovarian): 23.7 µM
- GI50 (U251 glioblastoma): 5.62 µM
- TGI (U251 glioblastoma): 22.2 µM
- GI50 (SK-MEL-5 melanoma): 8.18 µM
- TGI (SK-MEL-5 melanoma): 21 µM
- GI50 (MOLT-4 leukemia): 1.8 µM
- TGI (MOLT-4 leukemia): 3.2 µM
- GI50 (A549 NSCLC): 6.49 µM
- TGI (A549 NSCLC): 38.1 µM
- GI50 (ACHN renal): 4.63 µM
- TGI (ACHN renal): 16.8 µM
- GI50 (IGROV1 ovarian): 3.84 µM
- TGI (IGROV1 ovarian): 15.6 µM
- GI50 (UACC-257 melanoma): 9.05 µM
- TGI (UACC-257 melanoma): 21.4 µM
- GI50 (HL-60(TB) leukemia): 3.83 µM
- TGI (HL-60(TB) leukemia): 12.4 µM
- GI50 (HOP-92 NSCLC): 3.99 µM
- TGI (HOP-92 NSCLC): 16.7 µM
- GI50 (MDA-MB-231 breast): 5.78 µM
- TGI (MDA-MB-231 breast): 22.1 µM
- GI50 (SF-268 CNS): 10.3 µM
- TGI (SF-268 CNS): 31.8 µM
- GI50 (NCI-H226 lung): 4.07 µM
- TGI (NCI-H226 lung): 18 µM
- GI50 (TK-10 renal): 4.51 µM
- TGI (TK-10 renal): 19.3 µM
- GI50 (EKVX NSCLC): 10.1 µM
- TGI (EKVX NSCLC): 33.3 µM
- GI50 ([…]-0 renal): 7.07 µM
- TGI (786-0 renal): 28.1 µM
- GI50 (SNB-19 CNS): 10.3 µM
- TGI (SNB-19 CNS): 39.2 µM
- GI50 (MDA-MB-435 melanoma): 11.9 µM
- TGI (MDA-MB-435 melanoma): 31.9 µM
- GI50 (HOP-62 NSCLC): 4.43 µM
- TGI (HOP-62 NSCLC): 20.9 µM
- GI50 (HS 578T breast): 4.73 µM
- TGI (HS 578T breast): 18.4 µM
- GI50 (OVCAR-5 ovarian): 10.5 µM
- TGI (OVCAR-5 ovarian): 33.4 µM
- GI50 (K-562 leukemia): 4.85 µM
- TGI (K-562 leukemia): 16.7 µM
- GI50 (SN12C renal): 3.39 µM
- TGI (SN12C renal): 17.8 µM
- GI50 (M14 melanoma): 9.46 µM
- TGI (M14 melanoma): 21.4 µM
- GI50 (DU-145 prostate): 6.01 µM
- TGI (DU-145 prostate): 26.7 µM
- GI50 (HCC-2998 colon): 7.05 µM
- TGI (HCC-2998 colon): 29.1 µM
